Experimental data taken from ChEMBL document CHEMBL4371007, “Biased Ligands of G Protein-Coupled Receptors (GPCRs): Structure-Functional Selectivity Relationships (SFSRs) and Therapeutic Potential” (J Med Chem, 2018).
pEC50: −log10 of the molar value. Where a SMILES comes first, the peptide text is derived from it. [ ]: non-standard residue; d: D form. The star is where a group is joined. X1 = C[C@@H](NC(=O)[C@@H]1CCCN1C(=O)[C@H](Cc1cnc[nH]1)NC[C@H](CCCCN)N*)C(=O)O; Sar = CNCC(=O)O

Key:
[1] = molecular target: T1, Adenosine receptor A1 (Homo sapiens) (UniProt P30542); experiment: Agonist activity at adenosine A1 receptor (unknown origin) expressed in FlpIn-CHO cells assessed as increase in ERK1/2 phosphorylation; assay type: cell-based
T1 sequence (whole entry): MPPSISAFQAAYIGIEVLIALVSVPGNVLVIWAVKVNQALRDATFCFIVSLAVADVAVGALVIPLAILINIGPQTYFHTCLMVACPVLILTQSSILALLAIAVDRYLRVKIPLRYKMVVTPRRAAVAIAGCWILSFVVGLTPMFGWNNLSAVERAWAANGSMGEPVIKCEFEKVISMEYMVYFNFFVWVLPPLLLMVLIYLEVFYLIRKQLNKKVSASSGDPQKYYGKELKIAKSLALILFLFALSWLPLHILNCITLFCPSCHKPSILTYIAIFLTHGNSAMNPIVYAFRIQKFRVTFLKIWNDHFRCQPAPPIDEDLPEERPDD

[2] = molecular target: T1, Adenosine receptor A1 (Homo sapiens)
CHO = experiment: Cytoprotection against glutamate-induced cell death in CHO cells assessed as increase in cell viability by colorimetric assay; assay type: functional, cell-based; details: Cricetulus griseus
[3] = molecular target: Metabotropic glutamate receptor 5 (Homo sapiens, UniProt P41594); experiment: Agonist activity at mGlu5 receptor (unknown origin) expressed in CHO cells assessed as increase in Gq-mediated PI hydrolysis after 45 mins by yttrium scintillation proximity assay; assay type: cell-based
Chain of Metabotropic glutamate receptor 5 (P41594 whole entry): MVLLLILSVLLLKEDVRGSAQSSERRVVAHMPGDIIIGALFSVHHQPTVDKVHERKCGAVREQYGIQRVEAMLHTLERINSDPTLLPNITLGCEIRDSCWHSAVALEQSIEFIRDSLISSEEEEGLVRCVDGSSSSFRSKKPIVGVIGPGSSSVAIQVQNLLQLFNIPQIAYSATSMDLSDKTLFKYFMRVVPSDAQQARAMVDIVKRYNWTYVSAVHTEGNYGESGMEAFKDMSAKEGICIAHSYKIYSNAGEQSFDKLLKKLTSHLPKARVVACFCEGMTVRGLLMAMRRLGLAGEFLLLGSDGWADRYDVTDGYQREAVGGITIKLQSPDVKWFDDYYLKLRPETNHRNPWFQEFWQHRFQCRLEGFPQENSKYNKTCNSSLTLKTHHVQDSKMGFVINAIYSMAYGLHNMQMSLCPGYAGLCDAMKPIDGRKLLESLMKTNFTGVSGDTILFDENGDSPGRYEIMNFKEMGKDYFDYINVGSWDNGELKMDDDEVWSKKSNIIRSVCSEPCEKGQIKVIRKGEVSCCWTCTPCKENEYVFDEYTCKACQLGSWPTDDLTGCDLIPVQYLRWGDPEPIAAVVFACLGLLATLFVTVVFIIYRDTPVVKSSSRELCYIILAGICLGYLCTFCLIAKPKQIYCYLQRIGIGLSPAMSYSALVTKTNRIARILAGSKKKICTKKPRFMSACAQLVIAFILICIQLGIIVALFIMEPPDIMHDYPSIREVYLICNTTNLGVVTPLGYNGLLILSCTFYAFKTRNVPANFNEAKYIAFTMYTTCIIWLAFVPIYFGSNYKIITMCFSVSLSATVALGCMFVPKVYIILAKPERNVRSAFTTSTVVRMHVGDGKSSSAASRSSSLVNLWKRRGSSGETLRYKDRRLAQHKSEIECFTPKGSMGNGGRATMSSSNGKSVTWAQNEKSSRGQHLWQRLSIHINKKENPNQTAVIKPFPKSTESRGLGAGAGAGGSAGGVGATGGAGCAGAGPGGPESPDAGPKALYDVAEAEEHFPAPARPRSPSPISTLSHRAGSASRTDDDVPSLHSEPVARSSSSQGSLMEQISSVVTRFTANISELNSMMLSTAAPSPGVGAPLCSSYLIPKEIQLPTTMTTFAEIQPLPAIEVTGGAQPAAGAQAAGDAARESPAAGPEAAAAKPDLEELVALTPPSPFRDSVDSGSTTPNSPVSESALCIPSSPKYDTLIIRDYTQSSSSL

[4] = molecular target: T2, Kappa-type opioid receptor (Rattus norvegicus, UniProt P34975); experiment: Agonist activity at GFP-tagged rat kappa opioid receptor expressed in HEK293 cells assessed as increase in ERK1/2 phosphorylation after 5 mins by Western blot analysis; assay type: cell-based
T2 sequence (P34975 whole entry): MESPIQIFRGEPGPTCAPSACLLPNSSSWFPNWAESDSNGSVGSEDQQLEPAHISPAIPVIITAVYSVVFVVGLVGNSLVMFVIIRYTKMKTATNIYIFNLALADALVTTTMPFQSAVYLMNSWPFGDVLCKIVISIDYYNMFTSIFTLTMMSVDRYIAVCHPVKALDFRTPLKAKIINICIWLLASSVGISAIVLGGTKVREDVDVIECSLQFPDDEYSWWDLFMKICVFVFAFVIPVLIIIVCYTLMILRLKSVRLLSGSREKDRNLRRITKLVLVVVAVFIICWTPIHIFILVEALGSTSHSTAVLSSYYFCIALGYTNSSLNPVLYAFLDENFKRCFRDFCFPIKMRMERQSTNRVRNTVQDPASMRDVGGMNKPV

[5] = molecular target: T2, Kappa-type opioid receptor; experiment: Agonist activity at GFP-tagged rat kappa opioid receptor expressed in HEK293 cells assessed as increase in beta-arrestin mediated p38 phosphorylation after 5 mins by Western blot analysis; assay type: cell-based
[6] = molecular target: T3, Type-1 angiotensin II receptor (Homo sapiens, UniProt P30556); experiment: Agonist activity at human AT1 receptor assessed as increase in beta-arrestin recruitment by chemiluminescent assay
T3 sequence (P30556 whole entry): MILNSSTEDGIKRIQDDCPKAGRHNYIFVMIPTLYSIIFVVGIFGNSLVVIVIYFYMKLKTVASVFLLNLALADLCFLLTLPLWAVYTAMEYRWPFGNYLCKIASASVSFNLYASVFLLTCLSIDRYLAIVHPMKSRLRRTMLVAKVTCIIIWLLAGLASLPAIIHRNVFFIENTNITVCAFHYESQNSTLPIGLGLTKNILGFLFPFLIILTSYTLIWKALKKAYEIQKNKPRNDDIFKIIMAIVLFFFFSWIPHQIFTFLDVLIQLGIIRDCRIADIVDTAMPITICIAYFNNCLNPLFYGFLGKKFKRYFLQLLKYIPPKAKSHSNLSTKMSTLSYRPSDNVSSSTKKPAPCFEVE

[7] = molecular target: 5-hydroxytryptamine receptor 2B (Homo sapiens) (UniProt P41595)
Chain of 5-hydroxytryptamine receptor 2B (Homo sapiens) (P41595 whole entry): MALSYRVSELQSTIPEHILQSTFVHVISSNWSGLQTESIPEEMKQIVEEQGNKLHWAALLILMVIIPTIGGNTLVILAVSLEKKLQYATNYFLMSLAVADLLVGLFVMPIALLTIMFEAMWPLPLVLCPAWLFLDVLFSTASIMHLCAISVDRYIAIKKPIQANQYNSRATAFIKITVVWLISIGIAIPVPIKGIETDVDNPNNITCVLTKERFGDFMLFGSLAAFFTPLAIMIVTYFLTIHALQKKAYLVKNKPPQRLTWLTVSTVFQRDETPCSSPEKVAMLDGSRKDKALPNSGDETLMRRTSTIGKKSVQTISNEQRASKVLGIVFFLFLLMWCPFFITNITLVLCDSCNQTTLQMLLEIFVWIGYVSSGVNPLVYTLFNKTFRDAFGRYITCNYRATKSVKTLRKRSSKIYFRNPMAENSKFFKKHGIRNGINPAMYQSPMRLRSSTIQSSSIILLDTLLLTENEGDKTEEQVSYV

[8] = molecular target: 5-hydroxytryptamine receptor 1B (Homo sapiens) (UniProt P28222)
Chain of 5-hydroxytryptamine receptor 1B (Homo sapiens) (P28222 whole entry): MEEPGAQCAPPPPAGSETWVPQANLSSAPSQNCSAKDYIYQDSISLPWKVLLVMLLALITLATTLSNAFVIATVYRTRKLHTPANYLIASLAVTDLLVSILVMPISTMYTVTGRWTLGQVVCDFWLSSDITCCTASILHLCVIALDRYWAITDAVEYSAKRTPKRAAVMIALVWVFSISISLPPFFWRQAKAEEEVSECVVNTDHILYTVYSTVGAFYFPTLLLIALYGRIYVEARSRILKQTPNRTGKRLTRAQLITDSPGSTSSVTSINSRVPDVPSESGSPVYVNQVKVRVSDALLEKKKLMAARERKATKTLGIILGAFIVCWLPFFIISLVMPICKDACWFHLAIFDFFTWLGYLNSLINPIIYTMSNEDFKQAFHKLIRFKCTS

[9] = molecular target: 5-hydroxytryptamine receptor 1B (Homo sapiens) (UniProt P28222); remark: listed apart in the source
[10] = molecular target: 5-hydroxytryptamine receptor 2B (Homo sapiens) (UniProt P41595); remark: listed apart in the source
Apelin receptor [11] = molecular target: T4, Apelin receptor (Homo sapiens, UniProt P35414); experiment: Agonist activity at human APJ receptor expressed in HEK293 cells harboring Rluc2-beta-arrestin2 assessed as increase in beta-arrestin2 recruitment after 30 mins by BRET-based luciferase reporter gene assay; assay type: cell-based
T4 sequence (P35414 whole entry): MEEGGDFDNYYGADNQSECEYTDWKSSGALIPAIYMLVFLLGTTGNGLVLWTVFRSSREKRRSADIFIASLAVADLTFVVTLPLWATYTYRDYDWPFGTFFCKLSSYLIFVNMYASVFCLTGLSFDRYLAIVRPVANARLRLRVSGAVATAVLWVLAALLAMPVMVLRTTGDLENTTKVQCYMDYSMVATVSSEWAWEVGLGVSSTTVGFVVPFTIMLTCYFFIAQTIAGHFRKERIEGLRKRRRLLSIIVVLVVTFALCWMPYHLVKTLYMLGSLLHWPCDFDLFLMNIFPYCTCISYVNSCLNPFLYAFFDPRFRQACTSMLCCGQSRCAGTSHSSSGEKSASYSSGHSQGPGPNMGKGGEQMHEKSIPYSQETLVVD

Apelin receptor [12] = molecular target: T4, Apelin receptor; experiment: Agonist activity at GFP10 tagged human APJ receptor expressed in HEK293 cells harboring Rluc2-Galphai1/GFP10-Ggamma/Gbeta1 after 5 mins by BRET assay; assay type: cell-based
Apelin receptor [13] = molecular target: T4, Apelin receptor; experiment: Agonist activity at GFP10 tagged human APJ receptor expressed in HEK293 cells harboring Rluc2-beta-arrestin1 assessed as increase in beta-arrestin1 recruitment after 30 mins by BRET-based luciferase reporter gene assay; assay type: cell-based
Apelin receptor [14] = molecular target: T4, Apelin receptor; experiment: Agonist activity at GFP10 tagged human APJ receptor expressed in HEK293 cells harboring Rluc2-Galpha0A/GFP10-Ggamma/Gbeta1 after 5 mins by BRET assay; assay type: cell-based

## C[C@H](Cc1ccccc1)Nc1ncnc2c1ncn2[C@@H]1O[C@H](CO)[C@@H](O)[C@H]1O
[1]
  log(Tau/KA): 9.5
[2]
  log(Tau/KA): 8.96

## N[C@@H](CCC(=O)O)C(=O)O [GLUTAMIC ACID]
CHO
  pEC50: 3.82

## N[C@@H](Cn1oc(=O)[nH]c1=O)C(=O)O [QUISQUALATE]
[3]
  pEC50: 6.20

## CN(C(=O)/C=C/c1ccoc1)[C@@H]1CC[C@@]2(O)[C@H]3Cc4ccc(O)c5c4[C@@]2(CCN3CC2CC2)[C@H]1O5 [NALFURAFINE]
[4]
  pEC50: 9.30
[5]
  pEC50: 8.28

## CC[C@H](C)[C@H](NC(=O)[C@@H](NC(=O)[C@H](CCCNC(=N)N)NC(=O)CNC)C(C)C)C(=O)N[C@@H](CCCCN)CN[C@@H](Cc1cnc[nH]1)C(=O)N1CCC[C@H]1C(=O)N[C@H](C)C(=O)O (H-[Sar]RVI-X1)
[6]
  pEC50: 7.77

## CN1C[C@H](C(=O)N[C@]2(C)O[C@@]3(O)[C@@H]4CCCN4C(=O)[C@H](Cc4ccccc4)N3C2=O)C=C2c3cccc4[nH]cc(c34)C[C@H]21
[7]
  log(Tau/KA): 7.05
[8]
  log(Tau/KA): 8.53
[9]
  log(Tau/KA): 7.82
[10]
  log(Tau/KA): 5.95

## CC(C)C[C@H](NC(=O)[C@H](CCCCN)NC(=O)[C@@H]1CCCN1C(=O)[C@@H](N)CCCCN)C(=O)N[C@@H](CO)C(=O)N[C@@H]1CC=CCC[C@@H](C(=O)N[C@@H](Cc2ccc(OCc3ccccc3)cc2)C(=O)O)NC(=O)[C@@H]2CCCN2C(=O)CNC(=O)[C@H](CCCCN)NC1=O
Apelin receptor [11]
  pEC50: < 5.00
Apelin receptor [12]
  pEC50: 7.25
Apelin receptor [13]
  pEC50: < 5.00
Apelin receptor [14]
  pEC50: 7.30
